Measured values taken from patent US5206029A, “Medicament and its production and use in the treatment of pain, inflammation and fever in man and animals” (PAZ Arzneimittel-Entwicklungsgesellschaft mbH, priority 1990, dated 1993).

Assays:
cramp pain = cramp pain test in mice; assay type: in vivo, mouse; settings: FIG. 1
Text: (§1) This unexpected result was verified by investigations in two animal models (mouse and rat).
(§2) FIGS. 1-4 are graphs of tests in rats for cramp pain, interleukin-1-inducedpain, prostaglandin production and carrageenin-induced paw oedema for the R(-) and S(+) enantiomers of flurbiprofen, […]

[1] = tested on: interleukin 1-induced pain; experiment: interleukin 1-induced pain test in rats; assay type: in vivo, rat; settings: FIG. 2
Text: as §1, §2

[2] = design: species or system mouse and rat; settings: in vivo
Text: as §1

[3] = tested on: carrageenin-induced paw oedema; experiment: carrageenin-induced paw oedema of the rat; assay type: in vivo, rat (male Sprague-Dawley); settings: for oedema inhibition: 0.3 mg./kg. per os, paw volume after 3 hours p.a., FIG. 4
Procedure: To male Sprague-Dawley rats, each with a body weight of 120 to 150 g., were administered per os with a stomach probe the test substances (0.3 mg./kg. body weight). Immediately thereafter, into the left rear paw was injected subplantary 0.1 ml. of a.1% carrageenin solution in order to induce oedema. After 3 hours p.a., the paw volumes were determined by means of a plethysmometer (modified method according to Hofrichter).

gastro-intestinal mucosa = experiment: gastrointestinal toxicity in the rat (gastric ulcer index, intestinal ulcer); assay type: in vivo
Procedure: Each of the test groups were sacrificed after 24 hours, the stomach and intestines were removed and the stomach opened and cleaned with salt solution. The number of ulcerations multiplied with the diameter thereof in mm. is given as the "gastric ulcer index". The unopened small intestine was investigated for white and brown color changes. The corresponding sections were cut out and the weight thereof in comparison with the total weight plotted in % as "intestinal ulcer". The results are significant in the t-test in comparison with the control.

[4] = tested on: macrophages (peritoneum of the mouse); experiment: inhibition of prostaglandin liberation on macrophages (peritoneum of the mouse); assay type: cell-based
Procedure: Furthermore, contrary to the published state of knowledge (v. supra), S(+)-flurbiprofen in the case of administration after episiotomy is preferably effective antiphlogistically and not preferably analgesically. This further surprising test result was tested on two inflammation models selected independently of one another.

post-episiotomy pain = settings: half dosage; A. Sunshine et al., Clin. Pharmacol Ther. 1987; cited from earlier work

SMILES	analgesic effectiveness in the cramp pain test, R- versus S-enantiomer (cramp pain)	analgesic effectiveness in the interleukin 1-induced pain test, R- versus S-enantiomer [1]	inversion after administration [2]	oedema inhibition [3]	toxicity on the gastrointestinal tract, compared with the racemate or the S(+)-enantiomer (gastro-intestinal mucosa; summary statement)	inhibition of the liberation of prostaglandin, compared with the R(-)-form [4]	inflammation-inhibiting action in carrageenin paw oedema, compared with the R(-)-form ([3]; rat, FIGS. 3 and 4)	damage of the gastro-intestinal mucosa (gastro-intestinal mucosa; rat, in vivo)	analgesic effectiveness compared with the racemate (post-episiotomy pain)
C[C@@H](C(=O)O)c1ccc(-c2ccccc2)c(F)c1 [R(-)-flurbiprofen]	equal or even more effective by about one third to a half	equal or even more effective by about one third to a half	no or only a very small inversion	18%	lower grade toxicity on the gastrointestinal tract than the racemate or the S(+)-enantiomer	–	–	–	–
C[C@H](C(=O)O)c1ccc(-c2ccccc2)c(F)c1 [S(+)-flurbiprofen]	–	–	no or only a very small inversion	64%	–	inhibits the liberation of prostaglandin more markedly than the R(-)-form	superior in its inflammation-inhibiting action to the R(-)-form	only S(+)-flurbiprofen caused damage	already more effective at half dosage
